Experimental findings from patent US7858635B2 (priority 2005, dated 2010) are described below.

One assay deals with T1, M1 muscarinic receptor (Homo sapiens, UniProt P11229).
T1 construct: expressed in transfected cells; host or cells: CHO cells (M1-CHO, under zeocin and G418 selection)
T1 sequence (P11229 1-460): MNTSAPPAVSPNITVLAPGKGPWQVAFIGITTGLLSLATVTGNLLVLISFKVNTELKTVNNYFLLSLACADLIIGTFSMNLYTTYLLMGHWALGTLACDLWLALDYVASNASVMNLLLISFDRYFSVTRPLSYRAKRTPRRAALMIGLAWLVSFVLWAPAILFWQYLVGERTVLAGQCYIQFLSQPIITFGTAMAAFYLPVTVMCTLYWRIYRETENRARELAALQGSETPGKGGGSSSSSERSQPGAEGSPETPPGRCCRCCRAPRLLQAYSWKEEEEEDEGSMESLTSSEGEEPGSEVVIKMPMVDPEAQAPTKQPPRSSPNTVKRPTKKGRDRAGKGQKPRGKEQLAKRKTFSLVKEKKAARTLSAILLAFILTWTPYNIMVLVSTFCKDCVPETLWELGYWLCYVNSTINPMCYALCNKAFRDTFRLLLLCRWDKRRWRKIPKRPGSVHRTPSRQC
As to the kind of experiment: Functional mobilization of intracellular calcium (FLIPR, Fluo-3), M1-CHO cells. It counts as cell-based. Particulars: compound nos. 1-454; for Emax: 100% efficacy is the maximum response obtained with the Carbachol control, read-out: M1 Efficacy. A digest of the protocol:
(§1)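 CHO lines stably carrying the muscarinic subtype, dye-loaded with Fluo-3 at 37° C for 60-90 min, receive test compound in 0.5% DMSO. Agonist effects are read directly; antagonist effects against carbachol at EC80 after 15 min pre-incubation.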

For a further assay, the target named is T2, M4 muscarinic receptor (Homo sapiens, UniProt P08173).
T2 construct: expressed in transfected cells; host or cells: CHO cells (M4-CHO, under puromycin, zeocin and blasticidin selection)
T2 sequence (P08173 1-479): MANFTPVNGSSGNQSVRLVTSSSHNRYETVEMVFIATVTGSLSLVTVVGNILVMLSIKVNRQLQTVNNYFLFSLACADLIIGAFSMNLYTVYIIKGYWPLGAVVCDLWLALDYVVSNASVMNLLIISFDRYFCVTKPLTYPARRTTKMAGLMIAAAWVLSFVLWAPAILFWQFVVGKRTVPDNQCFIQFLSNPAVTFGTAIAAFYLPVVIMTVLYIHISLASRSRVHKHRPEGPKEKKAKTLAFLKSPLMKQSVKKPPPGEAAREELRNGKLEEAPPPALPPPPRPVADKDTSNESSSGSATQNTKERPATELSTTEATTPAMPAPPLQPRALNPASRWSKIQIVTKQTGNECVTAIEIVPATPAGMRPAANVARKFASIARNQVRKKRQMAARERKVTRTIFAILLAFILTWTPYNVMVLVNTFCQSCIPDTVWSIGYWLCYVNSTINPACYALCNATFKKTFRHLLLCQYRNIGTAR
As to the kind of experiment: Functional mobilization of intracellular calcium (FLIPR, Fluo-3), M4-CHO cells. It is filed as cell-based. To be noted: compound nos. 1-454; for Emax: 100% efficacy is the maximum response obtained with the Carbachol control, read-out: M4 Efficacy. A digest of the protocol: as §1

The mark [1] stands for this setting: M1-CHO cells, calcium mobilization.
Setting [2] is: M4-CHO cells, calcium mobilization.

Take `Clc1ccc2c(c1)C1(CCN(C3C[C@@H]4CCC3C4)CC1)CO2` (stereo in doubt) [compound 1, 1′-((1S,2R,4R)-bicyclo[2.2.1]heptan-2-yl)-5-chloro-2H-spiro[benzofuran-3,4′-piperidine]]: the Emax at M1 muscarinic receptor is 65 to 85%; on M4 muscarinic receptor, > 70%. Further, the “M1 Activity” value on M1 muscarinic receptor (setting [1]) is “++ (activity was measured to be between 0.7 μM and 3.0 μM)”. Moreover, the “M4 Activity” value on M4 muscarinic receptor (setting [2]) was “++ (activity was measured to be between 0.1 μM and 4.0 μM)”.
`CC(=O)N[C@H]1CC2(CCN(CC3CC4CCC3CC4)CC2)c2ccccc21` (stereo partly drawn) [compound 29]: the Emax is > 85% at M1 muscarinic receptor and > 70% on M4 muscarinic receptor. For the same compound, the “M1 Activity” value at M1 muscarinic receptor (setting [1]) is “+++ (activity was measured to be less than or equal to 0.7 μM)”. Besides, at M4 muscarinic receptor (setting [2]), the “M4 Activity” value is on record as “+++ (activity was measured to be less than or equal to 0.1 μM)”.
For `CCOC(=O)N1CCC(N2CCC3(CC2)CN(C(C)=O)c2ccc(F)cc23)CC1` [compound 413], at M1 muscarinic receptor, the “M1 Activity” value is recorded as “+++ (activity was measured to be less than or equal to 0.7 μM)” and the Emax was < 65%. Besides, on M4 muscarinic receptor, the “M4 Activity” value was “++ (activity was measured to be between 0.1 μM and 4.0 μM)”; the Emax was < 55%.
Regarding `CCOC(=O)N1CCC(C)(CN2CCC3(CC2)C[C@H](NC(C)=O)c2ccccc23)CC1` [compound 315], the Emax was < 65% at M1 muscarinic receptor and < 55% on M4 muscarinic receptor. Further, the “M1 Activity” value on M1 muscarinic receptor (setting [1]) was “+ (activity was measured to be greater than or equal to 3.0 μM)”. The “M4 Activity” value on M4 muscarinic receptor (setting [2]) is “+ (activity was measured to be greater than or equal to 4.0 μM)”.
For the compound `COCCOC(=O)N1CC2(CCN(C3CC4CCC(C3)N4C(=O)OC(C)C)CC2)c2cc(F)ccc21` (stereo not drawn) [compound 422], on M1 muscarinic receptor, the “M1 Activity” value is recorded as “+++ (activity was measured to be less than or equal to 0.7 μM)” and the Emax is < 65%. On M4 muscarinic receptor, the “M4 Activity” value is “+ (activity was measured to be greater than or equal to 4.0 μM)” and the Emax is < 55%.
`Clc1ccc2c(c1)C1(CCO2)CCN(C2CCOCC2)CC1` [compound 178]: the results for the Emax on M1 muscarinic receptor and at M4 muscarinic receptor were > 85% and 55 to 70%, respectively. Besides, the “M1 Activity” value on M1 muscarinic receptor (setting [1]) was “++ (activity was measured to be between 0.7 μM and 3.0 μM)”. In addition, the “M4 Activity” value at M4 muscarinic receptor (setting [2]) is on record as “+ (activity was measured to be greater than or equal to 4.0 μM)”.
In the case of `CCOC(=O)N1CCC(N2CCC3(CC2)CN(C(C)=O)c2ccc(-c4ccncc4)cc23)CC1` [compound 105], the Emax was < 65% on M1 muscarinic receptor and < 55% on M4 muscarinic receptor. Besides, the “M1 Activity” value at M1 muscarinic receptor (setting [1]) was “++ (activity was measured to be between 0.7 μM and 3.0 μM)”. In addition, the “M4 Activity” value at M4 muscarinic receptor (setting [2]) is “+ (activity was measured to be greater than or equal to 4.0 μM)”.
For `Clc1ccc2c(c1)C1(CCO2)CCN(C[C@@H]2C[C@H]3C=C[C@H]2C3)CC1` [compound 164], the Emax was > 85% at M1 muscarinic receptor and > 70% on M4 muscarinic receptor. For the same compound, the “M1 Activity” value at M1 muscarinic receptor (setting [1]) was “++ (activity was measured to be between 0.7 μM and 3.0 μM)”. Moreover, the “M4 Activity” value on M4 muscarinic receptor (setting [2]) was “+ (activity was measured to be greater than or equal to 4.0 μM)”.
For the compound `CCOC(=O)N1C2CCC1CC(N1CCC3(CC1)CN(C(=O)c1ccno1)c1ccc(F)cc13)C2` (stereo not drawn) [compound 88], the Emax at M1 muscarinic receptor was 65 to 85%; on M4 muscarinic receptor it was < 55%. Moreover, on M1 muscarinic receptor (setting [1]), the “M1 Activity” value is “+++ (activity was measured to be less than or equal to 0.7 μM)”. Besides, the “M4 Activity” value at M4 muscarinic receptor (setting [2]) is “++ (activity was measured to be between 0.1 μM and 4.0 μM)”.
In the case of `O=C(O[C@@H]1CCOC1)N1CC2(CCN(C3CC4CCC(C3)N4C(=O)O[C@H]3CCOC3)CC2)c2cc(F)ccc21` (stereo partly drawn) [compound 198], the Emax at M1 muscarinic receptor is 65 to 85%; at M4 muscarinic receptor, < 55%. The “M1 Activity” value at M1 muscarinic receptor (setting [1]) was “++ (activity was measured to be between 0.7 μM and 3.0 μM)”. On M4 muscarinic receptor (setting [2]), the “M4 Activity” value is listed as “+ (activity was measured to be greater than or equal to 4.0 μM)”.
As for `CCOC(=O)N1CCC(N2CCC3(CC2)CN(C(C)=O)c2ccc(F)cc23)C1` (stereo not drawn) [compound 113], the values for the Emax on M1 muscarinic receptor and at M4 muscarinic receptor were 65 to 85% and < 55%, respectively. Further, at M1 muscarinic receptor (setting [1]), the “M1 Activity” value was “+++ (activity was measured to be less than or equal to 0.7 μM)”. Further, the “M4 Activity” value on M4 muscarinic receptor (setting [2]) is listed as “+ (activity was measured to be greater than or equal to 4.0 μM)”.
The like results for `Cc1ccc2c(c1)C1(CCN([C@@H]3C[C@@H]4CC[C@@H]3C4)CC1)CN2` [compound 264] were, in that order, < 65%, < 55%, “+ (activity was measured to be greater than or equal to 3.0 μM)” and “+ (activity was measured to be greater than or equal to 4.0 μM)”.
On to `Clc1ccc2c(c1)C1(CCN(C3CCOCC3)CC1)CO2` [compound 257], for which the figures for the Emax on M1 muscarinic receptor and on M4 muscarinic receptor were > 85% and < 55%, respectively. The “M1 Activity” value at M1 muscarinic receptor (setting [1]) was “+ (activity was measured to be greater than or equal to 3.0 μM)”. Also, the “M4 Activity” value at M4 muscarinic receptor (setting [2]) is “+ (activity was measured to be greater than or equal to 4.0 μM)”.
The matching figures for `CC(=O)N1CC2(CCN(C3CCC(C(C)C)CC3)CC2)c2cc(F)ccc21` (stereo not drawn) [compound 226]: < 65%, < 55%, “+ (activity was measured to be greater than or equal to 3.0 μM)” and “+ (activity was measured to be greater than or equal to 4.0 μM)”.
In the case of `CCOC(=O)N1CCC(N2CCC3(CC2)CN(CC(=O)CC)c2ccc(F)cc23)CC1` [compound 303], the Emax on M1 muscarinic receptor is > 85%; on M4 muscarinic receptor it was < 55%. In addition, the “M1 Activity” value at M1 muscarinic receptor (setting [1]) was “++ (activity was measured to be between 0.7 μM and 3.0 μM)”. The “M4 Activity” value at M4 muscarinic receptor (setting [2]) is given as “+ (activity was measured to be greater than or equal to 4.0 μM)”.
For the compound `CCOC(=O)N[C@@H]1CC2(CCN(C[C@H]3C[C@H]4CC[C@H]3C4)CC2)c2ccccc21` [compound 275], the Emax on M1 muscarinic receptor is 65 to 85%; on M4 muscarinic receptor, > 70%. The “M1 Activity” value at M1 muscarinic receptor (setting [1]) is “+++ (activity was measured to be less than or equal to 0.7 μM)”. On M4 muscarinic receptor (setting [2]), the “M4 Activity” value is “++ (activity was measured to be between 0.1 μM and 4.0 μM)”.
As for `O=C(O[C@@H]1CCOC1)N1C2CCC1CC(N1CCC3(CC1)C(=O)Nc1ccccc13)C2` (stereo partly drawn) [compound 336], the Emax at M1 muscarinic receptor is < 65%; on M4 muscarinic receptor it was < 55%. Further, at M1 muscarinic receptor (setting [1]), the “M1 Activity” value was “+ (activity was measured to be greater than or equal to 3.0 μM)”. The “M4 Activity” value at M4 muscarinic receptor (setting [2]) is given as “+ (activity was measured to be greater than or equal to 4.0 μM)”.
Take `CCCCOC(=O)N1C2CCC1CC(N1CCC3(CC1)COc1ccc(F)cc13)C2` (stereo not drawn) [compound 286]: the Emax on M1 muscarinic receptor is < 65%; on M4 muscarinic receptor it was < 55%. Moreover, the “M1 Activity” value at M1 muscarinic receptor (setting [1]) is “++ (activity was measured to be between 0.7 μM and 3.0 μM)”. Also, at M4 muscarinic receptor (setting [2]), the “M4 Activity” value is “+ (activity was measured to be greater than or equal to 4.0 μM)”.
For the compound `COCCOC(=O)N1C2CCC1CC(N1CCC3(CC1)CN(C(=O)O[C@@H]1CCOC1)c1ccc(F)cc13)C2` (stereo partly drawn) [compound 216], the figures for the Emax on M1 muscarinic receptor and on M4 muscarinic receptor were > 85% and < 55%, respectively. In addition, the “M1 Activity” value at M1 muscarinic receptor (setting [1]) was “+++ (activity was measured to be less than or equal to 0.7 μM)”. Moreover, the “M4 Activity” value on M4 muscarinic receptor (setting [2]) is listed as “+ (activity was measured to be greater than or equal to 4.0 μM)”.
The matching figures for `CCOC(=O)N1CCC(N2CCC3(CC2)CN(C(C)=O)c2ccc(-c4ccsc4)cc23)CC1` [compound 165]: 65 to 85%, > 70%, “+ (activity was measured to be greater than or equal to 3.0 μM)” and “+ (activity was measured to be greater than or equal to 4.0 μM)”.
As for `CC(C)C(=O)N(C)[C@H]1CC2(CCN(C[C@H]3C[C@H]4CC[C@H]3C4)CC2)c2ccccc21` [compound 246], the Emax on M1 muscarinic receptor is < 65%; at M4 muscarinic receptor, > 70%. Moreover, the “M1 Activity” value on M1 muscarinic receptor (setting [1]) is “++ (activity was measured to be between 0.7 μM and 3.0 μM)”. Also, the “M4 Activity” value at M4 muscarinic receptor (setting [2]) is “++ (activity was measured to be between 0.1 μM and 4.0 μM)”.
